One data set has as its target human MDR1 (P-gp) (Homo sapiens (Human), UniProt P08183). Briefly: MDCK assay P-gp: permeability across MDCK-MDR1 monolayers. In kind it is in vitro ADME. The note with it: for Papp A→B at 2 h: MDCK-MDR1, apical-to-basal, pH 7.4; for efflux ratio at 2 h: pH 7.4, MDCK-MDR1, Papp (b-a) / Papp (a-b), read-out: efflux ratio PEBA/PEAB. How it is done: The MDCK assays provide information on the potential of a compound to pass the blood brain barrier. Permeability measurements across polarized, confluent MDCK-MDR1 cell monolayers grown on permeable filter supports are used as an in vitro absorption model: apparent permeability coefficients (PE) of the compounds across the MDCK-MDR1 cell monolayers are measured (pH 7.4, 37° C.) in apical-to-basal (AB) and basal-to-apical (BA) transport direction. The AB permeability (PEAB) represents drug absorption from the blood into the brain and the BA permeability (PEBA) drug efflux from the brain back into the blood via both, passive permeability as well as active transport mechanisms mediated by efflux and uptake transporters that are expressed on the MDCK-MDR1 cells, predominantly by the overexpressed human MDR1. Identical or similar permeabilities in both transport directions indicate passive permeation (PEBA/PEAB≤1), vectorial permeability points to additional active transport mechanisms. Higher PEBA than PEAB (PEBA/PEAB>5) indicates the involvement of active efflux mediated by MDR1, which might compromise the goal to achieve sufficient brain exposure. Therefore, this assay provides valuable support for selection of compounds applicable for further in vivo testing. High permeability not limited by efflux at the blood brain barrier is a favourable characteristic for compounds that are to be used for drugs acting primarily in the CNS.
Apparent permeability coefficients (Papp) of the compounds across the MDCK-MDR1 monolayers (MDCKII cells transfected with human MDR1 cDNA expression plasmid) are measured in apical-to-basal (AB) and basal-to-apical (BA) direction.
MDCK-MDR1 cells (6×10^5 cells/cm^2) are seeded on filter inserts (Corning, Transwell, polycarbonate, 0.4 μm pore size) and cultured for 9 to 10 days. Compounds dissolved in DMSO stock solution (1-20 mM) are diluted with HTP-4 aqueous buffer (128.13 mM NaCl, 5.36 mM KCl, 1 mM MgSO4, 1.8 mM CaCl2, 4.17 mM NaHCO3, 1.19 mM Na2HPO4, 0.41 mM NaH2PO4, 15 mM HEPES, 20 mM glucose, pH 7.4) supplemented with 0.25% BSA to prepare the transport solutions (final concentration: 1 or 10 μM, final DMSO<=0.5%). The transport solution is applied to the apical or basolateral donor side for measuring A-B or B-A permeability, respectively. The receiver side contains HTP-4 buffer supplemented with 0.25% BSA. Samples are collected at the start and end of experiment from the donor and at various time intervals for up to 2 hours also from the receiver side for concentration measurement by HPLC-MS/MS (RapidFire High-throughput MS System (Agilent) coupled to QTrap 6500 (AB Sciex) or TSQ Vantage (Thermo Scientific)). Sampled receiver volumes are replaced with fresh receiver solution. Efflux ratio is calculated dividing the Papp (b-a) values by the Papp (a-b) values.

In a further data set the target is Nav1.6 channel (Homo sapiens (Human), UniProt Q9UQD0). Briefly: Nav1.6 inhibition, IonWorks Quattro electrophysiology. The class given is cell-based. Particulars: for inhibition at 1 µM / inhibition at 5 µM: normalized to vehicle (0%) and maximal inhibition control (100%). How it is done: IonWorks Quattro electrophysiological platform
Sequence of Nav1.6 channel (Q9UQD0 whole entry): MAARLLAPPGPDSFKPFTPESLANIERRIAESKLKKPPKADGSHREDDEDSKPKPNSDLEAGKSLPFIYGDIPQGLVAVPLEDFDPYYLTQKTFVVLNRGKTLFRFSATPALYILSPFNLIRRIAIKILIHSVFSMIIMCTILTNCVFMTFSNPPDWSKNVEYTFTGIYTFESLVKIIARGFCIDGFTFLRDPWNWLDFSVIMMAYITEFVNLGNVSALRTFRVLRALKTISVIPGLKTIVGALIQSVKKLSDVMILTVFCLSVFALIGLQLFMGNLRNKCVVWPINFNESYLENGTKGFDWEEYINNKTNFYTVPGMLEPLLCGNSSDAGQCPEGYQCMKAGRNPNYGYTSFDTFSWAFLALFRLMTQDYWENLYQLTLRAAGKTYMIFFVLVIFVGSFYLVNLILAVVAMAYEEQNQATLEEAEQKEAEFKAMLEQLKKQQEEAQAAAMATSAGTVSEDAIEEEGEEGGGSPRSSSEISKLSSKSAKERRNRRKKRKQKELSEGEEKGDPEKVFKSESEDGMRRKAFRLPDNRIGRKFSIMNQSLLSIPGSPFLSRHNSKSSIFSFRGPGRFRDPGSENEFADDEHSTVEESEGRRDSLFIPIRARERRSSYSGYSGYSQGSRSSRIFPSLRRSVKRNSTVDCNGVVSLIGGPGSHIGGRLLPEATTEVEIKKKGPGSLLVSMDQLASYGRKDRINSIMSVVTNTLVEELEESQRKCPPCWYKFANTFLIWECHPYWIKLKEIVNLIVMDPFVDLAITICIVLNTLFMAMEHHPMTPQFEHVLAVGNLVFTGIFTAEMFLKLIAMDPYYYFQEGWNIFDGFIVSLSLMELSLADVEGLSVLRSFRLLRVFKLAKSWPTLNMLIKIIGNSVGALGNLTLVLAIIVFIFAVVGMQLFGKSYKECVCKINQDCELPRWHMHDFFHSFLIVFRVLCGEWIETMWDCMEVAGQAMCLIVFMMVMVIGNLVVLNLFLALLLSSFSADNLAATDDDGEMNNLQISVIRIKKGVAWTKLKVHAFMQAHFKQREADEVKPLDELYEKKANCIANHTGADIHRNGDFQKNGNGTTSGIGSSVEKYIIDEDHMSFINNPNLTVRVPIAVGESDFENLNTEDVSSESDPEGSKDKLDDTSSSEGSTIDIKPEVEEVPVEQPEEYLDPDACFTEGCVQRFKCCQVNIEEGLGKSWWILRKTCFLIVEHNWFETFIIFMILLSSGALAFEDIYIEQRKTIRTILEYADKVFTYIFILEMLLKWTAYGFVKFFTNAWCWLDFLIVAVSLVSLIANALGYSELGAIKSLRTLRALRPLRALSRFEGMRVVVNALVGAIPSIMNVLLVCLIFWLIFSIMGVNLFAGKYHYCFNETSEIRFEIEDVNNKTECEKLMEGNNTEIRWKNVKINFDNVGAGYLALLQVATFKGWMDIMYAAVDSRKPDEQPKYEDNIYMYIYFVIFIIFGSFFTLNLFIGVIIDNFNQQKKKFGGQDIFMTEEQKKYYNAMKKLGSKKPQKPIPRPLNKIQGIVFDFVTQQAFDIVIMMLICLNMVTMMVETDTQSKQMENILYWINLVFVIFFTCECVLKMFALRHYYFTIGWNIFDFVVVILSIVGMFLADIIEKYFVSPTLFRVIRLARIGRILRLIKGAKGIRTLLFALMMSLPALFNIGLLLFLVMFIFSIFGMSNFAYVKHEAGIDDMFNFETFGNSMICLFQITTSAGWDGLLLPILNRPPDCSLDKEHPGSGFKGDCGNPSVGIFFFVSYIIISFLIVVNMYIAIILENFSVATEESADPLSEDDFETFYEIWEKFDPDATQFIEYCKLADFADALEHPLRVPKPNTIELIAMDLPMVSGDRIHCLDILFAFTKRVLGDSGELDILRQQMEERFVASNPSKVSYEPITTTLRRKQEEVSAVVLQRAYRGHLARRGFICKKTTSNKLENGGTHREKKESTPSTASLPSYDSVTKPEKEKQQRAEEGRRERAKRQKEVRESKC
The compounds were prepared in DMSO at 300× the final assay concentrations of 1 and 5 μM.
The 300× DMSO stock solutions were transferred into assay plates where 2 μl per well of each 300× stock solution were placed. All assay plates were stored at −80° C. until the day of assay.
On the day of the assay, the appropriate assay plate was thawed at room temperature, centrifuged, and 198 μl of external recording solution was added and mixed thoroughly. This provided a 1:100 dilution. A further 1:3 dilution occurred upon addition to the cells in the IonWorks Quattro electrophysiological platform, giving a 1:300 dilution in total. On each assay plate, at least 8 wells were reserved for vehicle control (0.3% DMSO) and at least 8 wells for each positive control specific to the cell line tested. The positive controls were tested at a maximal blocking and an approximate IC50 concentration. As positive control Lidocaine at concentrations of 30 and 1000 μM was used.
The solutions for recording Nav1.6 currents were as follows:
Amphotericin B was used to obtain electrical access to the cell interior at a final concentration of 200 μg/ml in internal recording solution.
State-dependent inhibition: Sodium channels when held at depolarized potential or long test pulse, the channels open and inactivate and then stay inactivated until the membrane potential is stepped back to hyperpolarized potentials, when the inactivated channels recover from inactivation into closed state.
Cells were held at −120 mV. In order to completely inactivate the sodium channels (pulse 1), the cells were pulsed to +0 mV for 2500 ms and stepped back to −120 mV for 10 ms (to completely recover from inactivation, however channels that had drugs bound to them will not recover from inactivation) before stepping to +0 mV for 20 ms (pulse 2).
Assay Control Results Both the positive and vehicle control data associated with each cell line assayed are shown below as an example. The mean is shown for each positive and negative control as solid symbol with the total number of individual well replicates given next to the solid symbol. In addition, the individual data of each well are shown on the graph as open symbols so that the variation about the mean value can be readily assessed.
Shown below are the assay controls for the Nav1.6 IonWorks Quattro assay.
Tables 3 and 4 show the normalized percentage inhibition of Nav1.6 channel. […] (see also the figure Assay Control Results above).
Background: The patch-clamp technique gives a direct electrical read-out from membranes.

The term Papp A→B denotes how fast a substance crosses the layer from the apical side. Lower therefore signals poor permeation. Broadly, the inhibition is the drop in the measured response relative to a control, in per cent.

Sequence of human MDR1 (P-gp) (P08183 whole entry): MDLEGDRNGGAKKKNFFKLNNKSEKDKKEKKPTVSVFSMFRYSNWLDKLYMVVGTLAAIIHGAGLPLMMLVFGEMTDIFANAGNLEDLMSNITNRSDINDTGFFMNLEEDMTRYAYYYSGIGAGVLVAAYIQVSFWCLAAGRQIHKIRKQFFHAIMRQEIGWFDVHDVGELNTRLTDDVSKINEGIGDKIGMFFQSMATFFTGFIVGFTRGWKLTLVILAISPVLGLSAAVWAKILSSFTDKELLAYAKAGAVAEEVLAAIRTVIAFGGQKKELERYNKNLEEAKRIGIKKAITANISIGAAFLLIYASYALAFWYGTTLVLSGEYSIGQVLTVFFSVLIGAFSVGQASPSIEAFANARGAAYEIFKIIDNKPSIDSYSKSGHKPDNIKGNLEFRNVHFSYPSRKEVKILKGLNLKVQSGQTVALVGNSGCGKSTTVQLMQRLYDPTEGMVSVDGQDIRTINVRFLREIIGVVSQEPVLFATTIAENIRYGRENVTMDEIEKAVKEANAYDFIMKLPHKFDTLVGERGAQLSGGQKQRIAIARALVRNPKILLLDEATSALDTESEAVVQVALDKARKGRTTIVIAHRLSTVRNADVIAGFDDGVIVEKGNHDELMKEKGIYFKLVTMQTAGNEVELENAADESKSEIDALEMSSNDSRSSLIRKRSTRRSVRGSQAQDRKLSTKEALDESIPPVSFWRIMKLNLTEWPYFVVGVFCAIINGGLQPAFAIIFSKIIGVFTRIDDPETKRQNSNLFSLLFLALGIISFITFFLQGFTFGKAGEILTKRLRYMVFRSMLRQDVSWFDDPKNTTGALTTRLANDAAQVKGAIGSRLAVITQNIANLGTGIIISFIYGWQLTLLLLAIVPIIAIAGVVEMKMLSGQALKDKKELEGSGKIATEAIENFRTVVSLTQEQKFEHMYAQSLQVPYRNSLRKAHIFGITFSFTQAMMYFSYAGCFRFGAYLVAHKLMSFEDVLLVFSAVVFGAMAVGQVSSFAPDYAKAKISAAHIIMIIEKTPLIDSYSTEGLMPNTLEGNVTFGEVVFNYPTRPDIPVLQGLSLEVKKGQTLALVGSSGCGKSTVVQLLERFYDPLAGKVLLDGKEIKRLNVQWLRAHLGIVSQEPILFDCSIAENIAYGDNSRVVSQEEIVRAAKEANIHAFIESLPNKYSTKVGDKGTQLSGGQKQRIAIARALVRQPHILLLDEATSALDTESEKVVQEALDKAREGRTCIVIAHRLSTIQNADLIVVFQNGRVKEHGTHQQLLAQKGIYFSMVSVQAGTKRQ

For `CNC(=O)[C@@H]1CN(Cc2cnc(Oc3ccc(F)cc3)cn2)CCO1` [Example 1], on human MDR1 (P-gp), the Papp A→B at 2 h was found to be 59 ×10⁻⁶ cm/s and the efflux ratio at 2 h was found to be 0.7. Moreover, at Nav1.6 channel, the inhibition at 1 µM was -9% and the inhibition at 5 µM was found to be 0.5%.

For the molecule `CNC(=O)[C@@H]1CN(Cc2cnc(Oc3ccc(C)cc3F)cn2)CCO1` [Example 2], on human MDR1 (P-gp), the Papp A→B at 2 h was 76 ×10⁻⁶ cm/s and the efflux ratio at 2 h was 0.6. On Nav1.6 channel, the inhibition at 1 µM is -4.4% and the inhibition at 5 µM was -4%.

With `CNC(=O)[C@@H]1CN(Cc2cnc(Oc3ccc(C)cc3)cn2)CCO1` [Example 3], on human MDR1 (P-gp), the Papp A→B at 2 h came to 75 ×10⁻⁶ cm/s and the efflux ratio at 2 h stood at 0.7. Further, on Nav1.6 channel, the inhibition at 1 µM is 4.6% and the inhibition at 5 µM was 6.8%.

As to `CNC(=O)[C@@H]1CN(Cc2cnc(Oc3ccc(C)cc3C)cn2)CCO1` [Example 4], at human MDR1 (P-gp), the Papp A→B at 2 h was determined as 61 ×10⁻⁶ cm/s and the efflux ratio at 2 h is 0.7. In addition, at Nav1.6 channel, the inhibition at 1 µM turned out to be 3.4% and the inhibition at 5 µM amounted to 5%.

Regarding `CNC(=O)[C@@H]1CN(Cc2cnc(Oc3ccc(Cl)cc3F)cn2)CCO1` [Example 5], on human MDR1 (P-gp), the Papp A→B at 2 h worked out at 59 ×10⁻⁶ cm/s and the efflux ratio at 2 h is 0.8. Also, at Nav1.6 channel, the inhibition at 1 µM was -3.9% and the inhibition at 5 µM was determined as 3.7%.

Take `CNC(=O)[C@@H]1CN(Cc2cnc(Oc3ccc(F)cc3F)cn2)CCO1` [Example 6]: at human MDR1 (P-gp), the Papp A→B at 2 h was determined as 71 ×10⁻⁶ cm/s and the efflux ratio at 2 h was determined as 0.8. At Nav1.6 channel, the inhibition at 1 µM stood at 5.6% and the inhibition at 5 µM is 0.2%.

Regarding `CNC(=O)[C@@H]1CN(Cc2cnc(Oc3ccc(Cl)cc3)cn2)CCO1` [Example 7], on human MDR1 (P-gp), the Papp A→B at 2 h turned out to be 66 ×10⁻⁶ cm/s and the efflux ratio at 2 h is 0.7. In addition, at Nav1.6 channel, the inhibition at 1 µM was -9% and the inhibition at 5 µM was -15%. The “inhibition of the Nav 1.6 channel” value on Nav1.6 channel (at 5 μM) is “not showing any significant inhibition”.

With `CNC(=O)[C@@H]1CN(Cc2cnc(Oc3ccc(F)cc3C)cn2)CCO1` [Example 8], on human MDR1 (P-gp), the Papp A→B at 2 h was determined as 70 ×10⁻⁶ cm/s and the efflux ratio at 2 h was found to be 0.6. For the same molecule, at Nav1.6 channel, the inhibition at 1 µM amounted to 3% and the inhibition at 5 µM stood at 1.1%.

Regarding `CNC(=O)[C@@H]1CN(Cc2cnc(Oc3ccccc3F)cn2)CCO1` [Example 9], on human MDR1 (P-gp), the Papp A→B at 2 h came out at 62 ×10⁻⁶ cm/s and the efflux ratio at 2 h amounted to 0.9. Moreover, at Nav1.6 channel, the inhibition at 1 µM turned out to be 0% and the inhibition at 5 µM is 4.6%.

In the case of `CNC(=O)[C@@H]1CN(Cc2cnc(Oc3ccccc3Cl)cn2)CCO1` [Example 18], on human MDR1 (P-gp), the Papp A→B at 2 h was determined as 61 ×10⁻⁶ cm/s and the efflux ratio at 2 h is 0.8. In addition, on Nav1.6 channel, the inhibition at 1 µM is -5% and the inhibition at 5 µM is -10%.

As for `CCNC(=O)[C@@H]1CN(Cc2cnc(Oc3ccc(F)cc3F)cn2)CCO1` [Example 30], on human MDR1 (P-gp), the Papp A→B at 2 h was found to be 81 ×10⁻⁶ cm/s and the efflux ratio at 2 h was determined as 0.4. In addition, on Nav1.6 channel, the inhibition at 1 µM was -13.4% and the inhibition at 5 µM was -9.4%.

On to `CCNC(=O)[C@@H]1CN(Cc2cnc(Oc3ccc(C)cc3F)cn2)CCO1` [Example 31], for which, at human MDR1 (P-gp), the Papp A→B at 2 h was 66 ×10⁻⁶ cm/s and the efflux ratio at 2 h came out at 0.6. At Nav1.6 channel, the inhibition at 1 µM is -5.8% and the inhibition at 5 µM is -7%.

For `CCNC(=O)[C@@H]1CN(Cc2cnc(Oc3ccccc3Cl)cn2)CCO1` [Example 33], at human MDR1 (P-gp), the Papp A→B at 2 h stood at 59 ×10⁻⁶ cm/s and the efflux ratio at 2 h stood at 0.7. Further, at Nav1.6 channel, the inhibition at 1 µM is -10.5% and the inhibition at 5 µM was -6.6%.

For the origin of these results see patent US11166958B2, “4-pyrazin-2-ylmethyl-morpholine derivatives and the use thereof as medicament” (Boehringer Ingelheim International GmbH, priority 2018, dated 2021).
